In US20180327364A1, “MTOR INHIBITORS AND METHODS OF USE THEREOF” (Brandeis University, priority 2015, published 2018):

How the values were obtained:
Type in all cases: cell-based
[1] = tested on: 4EBP1 phosphorylation by mTORC1; test: 4EBP1 phosphorylation immunoblot in HEK-293T cells
Protocol: (§1) Quantification of western blots was performed with ImageJ. Cells were lysed in RIPA buffer (1% NP-40, 1% NaDeoxycholate, 0.1% SDS, 10 mM TrisCl, 10 mM β-glycerophosphate, 10 mM Na pyrophosphate, 50 mM NaF, 200 μM Na vanadate, 1 mM EDTA, 500 μM EGTA, 1% benzonase, and supplemented with complete (Roche Diagnostics) protease inhibitors).

firefly luciferase [2] = test: Luciferase assay in stably transduced luciferase HEK-293T cells; conditions: for wild type luciferase signal: HEK-293T cells expressing HA-luciferase, 100 μM, 4 h; for luciferase levels / activity, inhibitor alone: 100 μg/mL cycloheximide or 6 μM bortezomib
Protocol: Firefly luciferase and firefly luciferase-eDHFR were cloned into pBABE-puro vector which was a gift from Hartmut Land & Jay Morgenstern & Bob Weinberg (Addgene plasmid #1764). pBABE-puro-luciferase was co-transfected with VSV-G into GP2-293 cells (Retro-X Universal Packaging System, Clonetech, Mountain View, Calif.) with TransIT-2020 (MirusBio) according to TransIT-2020's manufacture's protocol. After 48 h, viral supernatant was harvested, spun down, filtered with a […] syringe filter, and added to HEK-293T supplemented with 8 μg/mL polybrene. After 4 h of infection, the media was replaced with fresh media. 48 h later, media was replaced with media containing 3 μg/mL puromycin. Media was replaced with fresh media containing puromycin every 3-4 days. After 2 weeks of puromycin selection, the cells were grown out from single cell colonies and screened for luciferase expression.
Stably transduced luciferase HEK-293T cells were plated in 96-well plates 24 h prior to treatment with 100 μM of Cbz-B3A, amine-B3A, acetyl-B3A, and Cbz-acetyl. After 4 h, cells were harvested and measured with Luciferase Assay System with Reporter Lysis Buffer from Promega according to the manufacturer's protocol. Before the addition of luciferin, protein concentration was measured by removing 2 μl of lysate from each well and adding it to diluted Bio-Rad Protein Assay Dye Reagent Concentrate, and the absorbance was measured at OD595. The protein concentration was used to normalize luciferase signal. For translation assays, cells were pretreated for 15 min with 100 μg/mL cycloheximide or 6 μM bortezomib. For the recombinant luciferase assay, Quantilum Recombinant Luciferase (Promega) was diluted 1:250,000 in reporter lysis buffer with 1 mg/mL BSA then mixed 1:1 with 200 μM compound in the same buffer for a final dilution of 1:500,000 and 100 μM compound in 20 μL. This was incubated for 10 min at room temperature then measured with Luciferase Assay System with Reporter Lysis Buffer from Promega according to the manufacturer's protocol.

eIF2α = eIF2α phosphorylation immunoblot in HEK-293T cells; conditions: 1 h; tunicamycin 5 μg/mL, thapsigargin 500 nM; compared with vehicle
Protocol: as §1

firefly luciferase [3] = test: Luciferase assay in stably transduced luciferase HEK-293T cells; conditions: HEK-293T luciferase-eDHFR and wild-type luciferase cells; 200 TMP-B3A (unit not given) vs DMSO
[4] = tested on: protein translation in HEK-293T cells; test: 35S-methionine/cysteine incorporation translation assay; conditions: saturating concentration (Cbz-B3A 10 μM); 4 h treatment then 1 h labeling
Protocol: 80,000 cells/well of HEK-293T cells were plated into 24 well plates 24 h before the assay. Cells were treated with indicated concentration of compound for 4 h. After 4 h, the media was removed and replaced with DMEM without methionine and cysteine (Lifetechnologies) supplemented with 0.2 mCi/mL EXPRESS [^35S] protein labeling mix (PerkinElmer), 10% dialyzed FBS (Pierce), 1× glutaMax (Gibco), 100 U/mL penicillin 100 μg/mL streptomycin (Gibco), 1 mM sodium pyruvate (Lifetechnologies), and the indicated concentration of compound. After 1 h, this media was removed, cells were washed with ice cold PBS, and lysed with low deoxycholate RIPA buffer (10 mM Tris-Cl, 1% NP-40, 0.5% Na Deoxycholate, 0.1% SDS, 140 mM NaCl, 1 mM EDTA, 500 μM EGTA, 1× Roche Complete protease inhibitors, 1:100 Benzonase, and at pH 8.0). Lysate was centrifuged at maximum speed for 20 m at 4° C. The concentration was measured by Bradford assay. 10 μg of lysate was added to […] ice cold 1 mg/mL BSA with 0.02% Na Azide. 1 mL of ice cold 10% TCA was added, the solutions were mixed and incubated on ice for 0.5 h. These mixtures were vacuum filtered onto GF/C Whatman glass microfiber filters. The filters were washed with 2×5 mL of 10% TCA, then 2×3 mL ethanol. The filters were then dried for a 0.5 h. The filters were placed into scintillation vials with 5 mL of scintillation fluid and read on a scintillation counter.

CC(C)(C)OC(=O)/N=C(/NCCCC(NC(=O)OC(C)(C)C)C(=O)NCCCCNC(=O)OCc1ccccc1)NC(=O)OC(C)(C)C (centres unmarked) [JX-8]
4EBP1 phosphorylation, comparison with Cbz-B3A ([1]; 20 μM, 3 h, anti-4EBP1 western blot): more potent mTOR inhibitor than CB3A

CC(=O)NCCCCCCNC(=O)OCc1ccccc1 [Cbz-acetyl]
4EBP1 phosphorylation (hyper- vs hypo-phosphorylated band) ([1]; Cbz-B3A 10 μM, Cbz-acetyl 10 μM, rapamycin 20 nM, 4 h): No shift
wild type luciferase signal (firefly luciferase [2]): not reduced

C/C=C(/C)C(=O)O[C@H]1C(C)=C2[C@H]([C@@H]1OC(=O)CCCCCCC)[C@@](C)(OC(C)=O)C[C@H](OC(=O)CCC)[C@@]1(O)[C@H]2OC(=O)[C@@]1(C)O [thapsigargin]
eIF2α phosphorylation (eIF2α): increased phosphorylation of eIF2α

CC(C)C[C@H](NC(=O)[C@H](Cc1ccccc1)NC(=O)c1cnccn1)B(O)O [Bortezomib, reference compound]
luciferase levels / activity, inhibitor alone (firefly luciferase [2]): decreased luciferase levels

COc1cc(Cc2cnc(N)nc2N)cc(OC)c1OCC(=O)NCCCCCCNC(=O)[C@H](CCCN/C(=N\C(=O)OC(C)(C)C)NC(=O)OC(C)(C)C)NC(=O)OC(C)(C)C [TMP-B3A]
luciferase signal (firefly luciferase [3]): reduced luciferase signal to similar levels in both luciferase-eDHFR and wild-type luciferase cells

CO[C@H]1C[C@@H]2CC[C@@H](C)[C@@](O)(O2)C(=O)C(=O)N2CCCC[C@H]2C(=O)O[C@H]([C@H](C)C[C@@H]2CC[C@@H](O)[C@H](OC)C2)CC(=O)[C@H](C)/C=C(\C)[C@@H](O)[C@@H](OC)C(=O)[C@H](C)C[C@H](C)/C=C/C=C/C=C/1C [rapamycin, reference compound]
maximal inhibition of translation (35S-methionine/cysteine incorporation) [4]: 35%

CC(C)(C)OC(=O)/N=C(\NCCC[C@H](NC(=O)OC(C)(C)C)C(=O)NCCCCCCN)NC(=O)OC(C)(C)C [Amine-B3A]
wild type luciferase signal (firefly luciferase [2]): decreased the wild type luciferase signal

CC(=O)NCCCCCCNC(=O)[C@H](CCCN/C(=N\C(=O)OC(C)(C)C)NC(=O)OC(C)(C)C)NC(=O)OC(C)(C)C [acetyl-B3A]
wild type luciferase signal (firefly luciferase [2]): decreased the wild type luciferase signal

C[C@@H]1C[C@@H]([C@H](O)CC2CC(=O)NC(=O)C2)C(=O)[C@@H](C)C1 [cycloheximide, reference compound]
luciferase levels / activity, inhibitor alone (firefly luciferase [2]): luciferase activity decreased

tunicamycin
eIF2α phosphorylation (eIF2α): increased phosphorylation of eIF2α
